According to PubChem BioAssay (NCI):
Values joined by “and” are separate entries in the source; they are usually repeats but may differ in a detail not shown here. Identical values can stand only once.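 A five-concentration, 48-hour dose response in 96-well plates underlies each endpoint, interpolated linearly between surrounding concentrations. GI50 is the concentration that inhibits growth by half. At the TGI there is no net growth.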

How the values were obtained:
Test in all cases: NCI tumour cell line growth inhibition, 48 h
P388 leukemia = system: P388 leukemia
NCI-H23 lung = system: NCI-H23 lung
HOP-92 NSCLC = system: HOP-92 NSCLC
UACC-257 melanoma = system: UACC-257 melanoma
CAKI-1 renal = system: CAKI-1 renal
OVCAR-5 ovarian = system: OVCAR-5 ovarian
NCI-H460 lung = system: NCI-H460 lung
OVCAR-4 ovarian = system: OVCAR-4 ovarian
SF-295 CNS = system: SF-295 CNS
LOX IMVI melanoma = system: LOX IMVI melanoma
XF 498 CNS = system: XF 498 CNS
SK-MEL-2 melanoma = system: SK-MEL-2 melanoma
OVCAR-8 ovarian = system: OVCAR-8 ovarian
NCI-H226 lung = system: NCI-H226 lung
RPMI-8226 leukemia = system: RPMI-8226 leukemia
A498 renal = system: A498 renal
HCT-15 colon = system: HCT-15 colon
COLO 205 colon = system: COLO 205 colon
SN12C renal = system: SN12C renal
NCI-H522 lung = system: NCI-H522 lung
M19-MEL melanoma = system: M19-MEL melanoma
DMS 273 small cell lung = system: DMS 273 small cell lung
MALME-3M melanoma = system: MALME-3M melanoma
K-562 leukemia = system: K-562 leukemia
SK-OV-3 ovarian = system: SK-OV-3 ovarian
RXF 393 renal = system: RXF 393 renal
HCT-116 colon = system: HCT-116 colon
SF-539 CNS = system: SF-539 CNS
HT29 colon = system: HT29 colon
SN12K1 renal = system: SN12K1 renal
HOP-18 NSCLC = system: HOP-18 NSCLC
A549 NSCLC = system: A549 NSCLC
U251 CNS = system: U251 CNS
SW-620 colon = system: SW-620 colon
SK-MEL-5 melanoma = system: SK-MEL-5 melanoma
OVCAR-3 ovarian = system: OVCAR-3 ovarian
CCRF-CEM leukemia = system: CCRF-CEM leukemia
HOP-62 NSCLC = system: HOP-62 NSCLC
HCC-2998 colon = system: HCC-2998 colon
SNB-75 CNS = system: SNB-75 CNS
DMS 114 small cell lung = system: DMS 114 small cell lung
UO-31 renal = system: UO-31 renal
SF-268 CNS = system: SF-268 CNS
UACC-62 melanoma = system: UACC-62 melanoma
IGROV1 ovarian = system: IGROV1 ovarian
NCI/ADR-RES ovarian = system: NCI/ADR-RES ovarian
SNB-78 CNS = system: SNB-78 CNS
MOLT-4 leukemia = system: MOLT-4 leukemia
SNB-19 CNS = system: SNB-19 CNS
EKVX NSCLC = system: EKVX NSCLC
P388/ADR leukemia = system: P388/ADR leukemia
SK-MEL-28 melanoma = system: SK-MEL-28 melanoma
KM12 colon = system: KM12 colon
MCF7 breast = system: MCF7 breast
HL-60(TB) leukemia = system: HL-60(TB) leukemia
DLD-1 colon = system: DLD-1 colon
KM20L2 colon = system: KM20L2 colon
ACHN renal = system: ACHN renal
SR leukemia = system: SR leukemia
M14 melanoma = system: M14 melanoma
LXFL 529 NSCLC = system: LXFL 529 NSCLC
TK-10 renal = system: TK-10 renal
786-0 renal = system: 786-0 renal
RXF-631 renal = system: RXF-631 renal

## COc1ccc2[nH]cc(/C=C(/C)c3ccncc3)c2c1
P388 leukemia
  TGI: 9.68 µM
NCI-H23 lung
  GI50: 7.07 µM
HOP-92 NSCLC
  GI50: 13.3 µM
  TGI: > 100 µM and 52.6 µM
UACC-257 melanoma
  GI50: 8.36 µM
  TGI: 32.8 µM and 26.4 µM
CAKI-1 renal
  TGI: > 100 µM
OVCAR-5 ovarian
  GI50: 11.6 µM
  TGI: 41.5 µM and > 100 µM
NCI-H460 lung
  TGI: 12.5 µM and 22.4 µM
OVCAR-4 ovarian
  GI50: 17.9 µM
  TGI: > 100 µM
SF-295 CNS
  GI50: 3.63 µM
  TGI: 12.1 µM and 32.8 µM
LOX IMVI melanoma
  TGI: 28.8 µM and 18.9 µM
XF 498 CNS
  GI50: 4.3 µM
  TGI: 27.8 µM and 44.5 µM
SK-MEL-2 melanoma
  GI50: 58.1 µM
  TGI: > 100 µM and 55.9 µM
OVCAR-8 ovarian
  GI50: 7.76 µM
  TGI: > 100 µM
NCI-H226 lung
  GI50: 7.63 µM
  TGI: 38.6 µM and > 100 µM
RPMI-8226 leukemia
  GI50: 2.7 µM
  TGI: 16.5 µM and > 100 µM
A498 renal
  TGI: 42.5 µM
HCT-15 colon
  GI50: 0.551 µM
  TGI: 18.7 µM and 14 µM
COLO 205 colon
  TGI: 16.4 µM and 13.9 µM
SN12C renal
  GI50: 7.58 µM
  TGI: > 100 µM
NCI-H522 lung
  GI50: 3.99 µM
  TGI: 21.9 µM and 7.16 µM
M19-MEL melanoma
  GI50: 6.77 µM
  TGI: 32 µM and 21.5 µM
DMS 273 small cell lung
  GI50: 2.37 µM
  TGI: 19.6 µM and 10.5 µM
MALME-3M melanoma
  GI50: 3.14 µM
  TGI: 21.9 µM
K-562 leukemia
  TGI: > 100 µM
SK-OV-3 ovarian
  TGI: 35.6 µM
RXF 393 renal
  GI50: 2.74 µM
  TGI: 10.3 µM
HCT-116 colon
  GI50: 3.67 µM
  TGI: 16.8 µM and 20.5 µM
SF-539 CNS
  GI50: 4.46 µM
  TGI: 19.9 µM and > 100 µM
HT29 colon
  GI50: 3.64 µM
  TGI: 13.1 µM and 10.9 µM
SN12K1 renal
  GI50: 5.6 µM
  TGI: 27.6 µM and > 100 µM
HOP-18 NSCLC
  TGI: > 100 µM
A549 NSCLC
  GI50: 5.48 µM
  TGI: > 100 µM
U251 CNS
  GI50: 3.24 µM
  TGI: 11 µM and 67.9 µM
SW-620 colon
  TGI: 27.2 µM and > 100 µM
SK-MEL-5 melanoma
  TGI: 9.24 µM
OVCAR-3 ovarian
  GI50: 4.16 µM
  TGI: > 100 µM
CCRF-CEM leukemia
  TGI: > 100 µM
HOP-62 NSCLC
  TGI: 53.8 µM
HCC-2998 colon
  TGI: 95.3 µM
SNB-75 CNS
  GI50: 4.93 µM
  TGI: 29.5 µM and 7.19 µM
DMS 114 small cell lung
  GI50: 2.23 µM
  TGI: 7.19 µM and 6.35 µM
UO-31 renal
  GI50: 3.85 µM
  TGI: 28.4 µM and 96.4 µM
SF-268 CNS
  TGI: > 100 µM
UACC-62 melanoma
  TGI: 29.8 µM and 52.9 µM
IGROV1 ovarian
  TGI: > 100 µM
NCI/ADR-RES ovarian
  GI50: 2.11 µM
SNB-78 CNS
  GI50: 9.43 µM
  TGI: > 100 µM
MOLT-4 leukemia
  GI50: 2.68 µM
  TGI: 47.9 µM and > 100 µM
SNB-19 CNS
  GI50: 15.5 µM
  TGI: > 100 µM
EKVX NSCLC
  TGI: > 100 µM
P388/ADR leukemia
  TGI: 22.6 µM
SK-MEL-28 melanoma
  GI50: 9.02 µM
  TGI: > 100 µM
KM12 colon
  GI50: 0.796 µM
  TGI: > 100 µM
MCF7 breast
  GI50: 0.996 µM
  TGI: > 100 µM
HL-60(TB) leukemia
  TGI: 3.93 µM
DLD-1 colon
  GI50: 4 µM
  TGI: > 100 µM
KM20L2 colon
  GI50: 2.96 µM
  TGI: 8.67 µM

## N#C/C(=C\c1cccc(Cl)c1Cl)c1ccccc1
NCI-H23 lung
  TGI: > 72.9 µM
HOP-92 NSCLC
  TGI: > 82.3 µM
UACC-257 melanoma
  TGI: > 100 µM
CAKI-1 renal
  TGI: 77.7 µM
OVCAR-5 ovarian
  TGI: > 100 µM
NCI-H460 lung
  TGI: > 100 µM
OVCAR-4 ovarian
  TGI: > 85.6 µM
SF-295 CNS
  TGI: 60.4 µM
LOX IMVI melanoma
  TGI: > 100 µM
XF 498 CNS
  TGI: > 57.4 µM
SK-MEL-2 melanoma
  TGI: > 100 µM
OVCAR-8 ovarian
  TGI: > 100 µM
NCI-H226 lung
  TGI: > 100 µM
RPMI-8226 leukemia
  TGI: > 89.1 µM
A498 renal
  TGI: 89.6 µM
HCT-15 colon
  TGI: > 77.6 µM
COLO 205 colon
  TGI: > 100 µM
SN12C renal
  TGI: > 100 µM
NCI-H522 lung
  TGI: > 100 µM
M19-MEL melanoma
  TGI: > 100 µM
DMS 273 small cell lung
  TGI: > 54.1 µM
MALME-3M melanoma
  TGI: > 70 µM
ACHN renal
  TGI: > 90.8 µM
K-562 leukemia
  TGI: > 100 µM
SK-OV-3 ovarian
  TGI: > 89.9 µM
RXF 393 renal
  TGI: > 79.2 µM
SR leukemia
  TGI: > 80.9 µM
HCT-116 colon
  TGI: > 67.5 µM
SF-539 CNS
  TGI: 53.3 µM
HT29 colon
  TGI: > 100 µM
HOP-18 NSCLC
  TGI: > 90.4 µM
A549 NSCLC
  TGI: > 100 µM
U251 CNS
  TGI: 69.5 µM
SW-620 colon
  TGI: > 72.4 µM
SK-MEL-5 melanoma
  TGI: > 100 µM
M14 melanoma
  TGI: > 100 µM
OVCAR-3 ovarian
  TGI: > 92.6 µM
CCRF-CEM leukemia
  TGI: > 46.4 µM
HOP-62 NSCLC
  TGI: 60.9 µM
HCC-2998 colon
  TGI: > 100 µM
SNB-75 CNS
  TGI: 51.1 µM
DMS 114 small cell lung
  TGI: > 73.1 µM
LXFL 529 NSCLC
  TGI: > 100 µM
UO-31 renal
  TGI: > 91.2 µM
TK-10 renal
  TGI: 91.6 µM
SF-268 CNS
  TGI: > 100 µM
UACC-62 melanoma
  TGI: > 100 µM
IGROV1 ovarian
  TGI: 55.2 µM
SNB-78 CNS
  TGI: > 100 µM
786-0 renal
  TGI: 65.2 µM
MOLT-4 leukemia
  TGI: > 100 µM
SNB-19 CNS
  TGI: > 90.7 µM
RXF-631 renal
  TGI: > 100 µM
EKVX NSCLC
  TGI: > 100 µM
SK-MEL-28 melanoma
  TGI: > 100 µM
KM12 colon
  TGI: > 100 µM
HL-60(TB) leukemia
  TGI: > 100 µM
DLD-1 colon
  TGI: > 100 µM
KM20L2 colon
  TGI: > 100 µM
